Patent publication US8258125B2, “HDL-boosting combination therapy complexes” (priority 2008, dated 2012)
Entries after “also recorded” stand apart in the source; their conditions may differ. Where two headings read alike, the source gives them in different places.

Tests used:
[1] = test system: Rattus norvegicus, outbred Sprague Dawley; details: combination, rat 14 days, mg/70 kg man
Experimental: Age range at initiation of study was 8-14. […] Quarantine/acclimation was one week. Animals were randomized to groups based on weight. Number per cage was 2-3. Environmental conditions: Conventional microisolator caging. Room temperature was maintained between 19 and 23° C. Relative humidify was maintained at 55-80%. The light/dark cycle was maintained on a 12 hour cycle. Animals were exposed to the test substance daily for 14 days (2 weeks); and the doses were administered by gavage.
Gross necropsy was performed in the animals in the study. […] Collected tissues were placed in formalin overnight and then sectioned and cassetted the following day.
Blood samples were collected by cardiac puncture, 24 hours after the last treatment, as part of the necropsy protocol. Parameters examined include hematocrit (HCT), hemoglobin (Hgb), total erythrocyte count (RBC), total white cell count (WBC), differential count, and platelet estimate; calculated mean corpuscular volume (MCV), mean corpuscular hemoglobin (MCH), and mean corpuscular hemoglobin concentration (MCHC).
Also, at 16-18 hours after the last treatment, animals were placed in metabolic cages and urine was collected (just prior to necropsy). The urine samples were tested for presence of myoglobin.
Clinical Chemistry. Blood samples were collected by cardiac puncture, 24 hours after the last treatment, as part of the necropsy protocol. […]

[2] = test system: Syrian Golden hamsters (F1B strain); assay: Lipid profile in Syrian Golden hamsters on hypercholesterolemic diet, combo drugs vs Crestor; type: in vivo; details: for effective doses found in this study: in combination, mg/70 kg man
Experimental: Crestor is a new synthetic statin and considered “superstatin” because of its effectiveness at low doses. In clinical studies, Crestor is now found to be the new gold standard among the statins: a 5 mg Crestor dose is equivalent to 20 mg Lipitor, 40 mg Zocor, 80 mg Mevacor or Pravachol. Thus, the drug combination of Compound I and Compound II was compared with Crestor. The animal model was Syrian Golden hamsters (F1B strain, BioBreeders, Fitchburg Mass.). The animals approximately 8-10 weeks of age were fed a non-purified chow-based hypercholesterolemic diet (HCD) containing 10% coconut oil and 0.1% cholesterol by weight for 2 weeks prior to initiation of the experimental treatments, and remain on this diet for the remainder of the study. Compounds I and II were administered by oral gavage (0.2 mL), once a day for 14 days. At day 14, blood samples were obtained after an overnight fast.

Golden Syrian hamster = assay: Evaluation of antilipidemic property in hamster animal model (2-week daily oral gavage); type: in vivo; details: for LDL-C reduced by: 8-160 mg range; for raising HDL-C (in words): monotherapy; for reducing LDL-C by: repeat experiment, 5-20 mg dose range
Description: Evaluation of antilipidemic property in animal. Golden Syrian hamster, 8-wk old (85-100 g) (Bio®F1B, Bio Breeders, Inc., Watertown, Mass.) was the animal model chosen for this study because of its similarities with humans in lipoprotein metabolism and atherosclerosis Moreover, the hamster has plasma cholesteryl ester transfer protein (CETP) similar to humans. Dietary fat saturation affects apolipoprotein gene expression and high-density lipoprotein size distribution in golden Syrian hamsters. The animals housed four per cage were fed […] Supreme Fortified Hamster diet ([…] Products, Inc. Chilton, Wis.), with one part ratio of Heath High Energy suet (Heath Mfg., Cooperville, Mich.); water ad libitum. The animals were fed this diet for 1 week, and then given the drug treatment for a 2-week duration. Drugs were administered by daily oral gavage using 4:6 PEG/Cremaphore suspension vehicle for the water-insoluble drugs (e.g., atorvastatin, lovastatin, simvastatin, and the fibrates); the water-soluble drugs (dihydroxy-acid salts, pravastatin) were dissolved in water. Equivalent doses, based on a 70 kg person, were administered in the hamster. […] Thus, the calculated final dose for a 100-gm hamster is 0.143 mg as well ([…] X a factor of “10”), formulated in a 0.25 ml solution for oral gavage administration. […] Body weights were recorded prior to drug administration and every other day during the test duration. At termination, blood was collected from anesthetized hamsters and the serum is separated by centrifugation. Total serum cholesterol was assayed using the Hitachi Diagnostics enzymatic kit for the determination of total cholesterol, LDL cholesterol, HDL cholesterol, and triglyceride (Analysis performed by: Lipid Analysis, Inc., Springfield, Ill.).

Water solubility = type: physicochemical
[3] = background description; cited from earlier work
[4] = Equivalent Dose 8 mg (per 70 kg man), oral gavage 2 weeks, serum
[5] = Equivalent Dose 160 mg (per 70 kg man), oral gavage 2 weeks, serum
[6] = repeat comparison, Equivalent Dose 5.0 mg
[7] = repeat comparison, Equivalent Dose 10.0 mg
[8] = repeat comparison, Equivalent Dose 20.0 mg
[9] = compared with the Compound I and II combination

Structure (SMILES)	% Decrease On: HDL-C (Golden Syrian hamster; Equivalent Dose 8 mg) [%]	% Decrease On: LDL-C (Golden Syrian hamster; Equivalent Dose 8 mg) [%]	% Decrease On: Triglyceride (Golden Syrian hamster; Equivalent Dose 8 mg) [%]	% Decrease On: Total Cholesterol (Golden Syrian hamster; [4]) [%]	% Decrease On: HDL-C (Golden Syrian hamster; Equivalent Dose 160 mg) [%]	% Decrease On: LDL-C (Golden Syrian hamster; Equivalent Dose 160 mg) [%]	% Decrease On: Triglyceride (Golden Syrian hamster; Equivalent Dose 160 mg) [%]	% Decrease On: Total Cholesterol (Golden Syrian hamster; [5]) [%]	raising HDL-C (in words) (Golden Syrian hamster)	also measured
CC(C)(Oc1ccc(CCNC(=O)c2ccc(Cl)cc2)cc1)C(=O)[O-].[Na+] [Compound III]										maximum tolerated dose (MTD) [1]: 10,000 mg; effective doses found in this study [2]: 30 to 40 mg
CC[C@H](C)C(=O)O[C@H]1C[C@@H](C)C=C2C=C[C@H](C)[C@H](CC[C@@H](O)C[C@@H](O)CC(=O)[O-])[C@H]21.[Na+] [Compound I]	25.2	41.4	28.6	30.3	32.2	29.2	33.7	40.7	not effective in raising HDL-C	LDL-C reduced by (Golden Syrian hamster): 41.4-59.2%; effective at a dose as low as (Golden Syrian hamster; equivalent dose, antilipidemic activity): 5 mg; % Decrease On: HDL-C (Golden Syrian hamster; [6]): 5.6%; % Decrease On: LDL-C (Golden Syrian hamster; [6]): 14.7%; % Decrease On: Total Cholesterol (Golden Syrian hamster; [6]): 14.8%; % Decrease On: Triglyceride (Golden Syrian hamster; [6]): 4.5%; % Decrease On: HDL-C (Golden Syrian hamster; [7]): 12.4%; % Decrease On: LDL-C (Golden Syrian hamster; [7]): 23.7%; % Decrease On: Total Cholesterol (Golden Syrian hamster; [7]): 12.6%; % Decrease On: Triglyceride (Golden Syrian hamster; [7]): 6.8%; % Decrease On: HDL-C (Golden Syrian hamster; [8]): 20.7%; % Decrease On: LDL-C (Golden Syrian hamster; [8]): 22.4%; % Decrease On: Total Cholesterol (Golden Syrian hamster; [8]): 20.9%; % Decrease On: Triglyceride (Golden Syrian hamster; [8]): 23.6%; reducing LDL-C by (Golden Syrian hamster): 22.4-23.7%; effective doses found in this study [2]: 1 to 3 mg
CC(C)c1nc(N(C)S(C)(=O)=O)nc(-c2ccc(F)cc2)c1/C=C/[C@@H](O)C[C@@H](O)CC(=O)O [Crestor]										HDL level (in words) [2, 9]: did not boost HDL; controlling cholesterol and LDL (in words) [2, 9]: less effective in controlling cholesterol and LDL
CC(C)c1c(C(=O)Nc2ccccc2)c(-c2ccccc2)c(-c2ccc(F)cc2)n1CC[C@@H](O)C[C@@H](O)CC(=O)O [Lipitor, Atorvastatin]	33.3	28.5	35.8	28.6	30.7	54.4	53.0	43.0	not effective in raising HDL-C; also recorded: did not show any increase in HDL-C	LDL-C reduced by (Golden Syrian hamster): 28.5-54.4%; % Decrease On: HDL-C (Golden Syrian hamster; [7]): 20.7%; % Decrease On: LDL-C (Golden Syrian hamster; [7]): 17.9%; % Decrease On: Total Cholesterol (Golden Syrian hamster; [7]): 18.2%; % Decrease On: Triglyceride (Golden Syrian hamster; [7]): 5.0%; % Decrease On: HDL-C (Golden Syrian hamster; [8]): 15.9%; % Decrease On: LDL-C (Golden Syrian hamster; [8]): 8.9%; % Decrease On: Total Cholesterol (Golden Syrian hamster; [8]): 12.3%; % Decrease On: Triglyceride (Golden Syrian hamster; [8]): 4.8%; reducing LDL-C by (Golden Syrian hamster): 8.9-17.9%
CC[C@H](C)C(=O)O[C@H]1C[C@@H](C)C=C2C=C[C@H](C)[C@H](CC[C@@H]3C[C@@H](O)CC(=O)O3)[C@H]21 [Mevacor, Lovastatin]	20.4	22.4	21.8	19.4	26.7	54.4	34.4	36.6	did not show any increase in HDL-C	solubility in water (Water solubility): not water-soluble; solubility in water [3]: insoluble in water
CC[C@H](C)C(=O)O[C@H]1C[C@H](O)C=C2C=C[C@H](C)[C@H](CC[C@@H](O)C[C@@H](O)CC(=O)O)[C@H]21 [Pravachol, Pravastatin]	20.4	29.9	18.8	22.4	17.3	33.3	25.9	23.0	did not show any increase in HDL-C	
CCC(C)(C)C(=O)O[C@H]1C[C@@H](C)C=C2C=C[C@H](C)[C@H](CC[C@@H]3C[C@@H](O)CC(=O)O3)[C@H]21 [Zocor, Simvastatin]	12.6	5.4	23.4	9.5	30.7	54.4	43.0	40.7		
O=C(O)c1cccnc1 [niacin, 3-pyridine carboxylic acid]										solubility in water (Water solubility): not soluble in water
